Source: patent publication US8685997B2, “Camptothecin derivatives and their use” (Shanghai Institute of Materia Medica, Chinese Academy of …, priority 2006, dated 2014)
Read-outs that look alike come from different tables or passages of the source.

Legend:
[1] = system: HCT-116; assay: SRB protein staining tumor cell proliferation assay; format: cell-based, human; conditions: read-out: IC50(mean ± SD)
Excerpt: (§1) 1. Sulfonyl rhodamine B (SRB) protein staining assays were used to detect the inhibition of tumor cell proliferation of the compound.

[2] = system: thirteen tumor cell lines; assay: SRB proliferation assay, panel of thirteen tumor cell lines; format: cell-based; conditions: mean over thirteen tumor cell lines
Excerpt: as §1

[3] = system: NCI-H23; assay: SRB protein staining tumor cell proliferation assay; format: cell-based; conditions: read-out: IC50(mean ± SD)
Excerpt: as §1

[4] = system: MDA-MB-468; assay: as above; format: cell-based; conditions: read-out: IC50(mean ± SD)
Excerpt: as §1

[5] = system: MKN-28; assay: as above; format: cell-based; conditions: read-out: IC50(mean ± SD)
Excerpt: as §1

[6] = system: BEL-7402; assay: as above; format: cell-based; conditions: read-out: IC50(mean ± SD)
Excerpt: as §1

[7] = system: HCT-15; assay: as above; format: cell-based; conditions: read-out: IC50(mean ± SD)
Excerpt: as §1

[8] = system: SGC-7901; assay: as above; format: cell-based; conditions: read-out: IC50(mean ± SD)
Excerpt: as §1

[9] = system: SMMC-7721; assay: as above; format: cell-based; conditions: read-out: IC50(mean ± SD)
Excerpt: as §1

[10] = system: MCF-7; assay: as above; format: cell-based
Excerpt: as §1

[11] = system: MDA-MB-435; assay: as above; format: cell-based; conditions: read-out: IC50(mean ± SD)
Excerpt: as §1

[12] = system: HL-60; assay: as above; format: cell-based; conditions: read-out: IC50(mean ± SD)
Excerpt: as §1

[13] = system: A549; assay: as above; format: cell-based; conditions: read-out: IC50(mean ± SD)
Excerpt: as §1

[14] = system: HO-8910; assay: as above; format: cell-based; conditions: read-out: IC50(mean ± SD)
Excerpt: as §1

[15] = system: human lung cancer SPC-A4 xenografts; assay: Human lung cancer SPC-A4 xenografts in nude mice; conditions: for Body weight (g) At the beginning / Body weight (g) At the end / RTV / T/C (%) / TV (mm^3) d0 / TV (mm^3) d20: q3w × 3, i.v.
[16] = system: human rectal cancer HCT-116 xenografts; assay: Human rectal cancer HCT-116 xenografts in nude mice; conditions: for Body weight (g) At the beginning / Body weight (g) At the end / RTV / T/C (%) / TV (mm^3) d0 / TV (mm^3) d21: q3w × 3, i.v.
[17] = system: K562 cell line; assay: Anti-multidrug resistance evaluation, parent cell line; format: cell-based; conditions: Homo sapiens; K562 cells
Excerpt: (§2) 2. The multidrug resistance cell line K562/A02 and its parent K562 cell line were used to evaluate the anti-multidrug resistance of the CPT-4 active metabolite.

[18] = system: multidrug resistance cell line K562/A02; assay: Anti-multidrug resistance evaluation, multidrug resistance cell line; format: cell-based
Excerpt: as §2

[19] = intravenously, three times per week

CC[C@@]1(O)C(=O)OCc2c1cc1n(c2=O)Cc2cc3c([N+](=O)[O-])cccc3nc2-1 [9NC, 9-nitrocamptothecin]
IC50 [1]: 13.7 ± 1.4 nM
IC50 [2]: 167 nM
IC50 [3]: 70.3 ± 14.6 nM
IC50 [4]: 64.9 ± 29.6 nM
IC50 [5]: 116 ± 6.48 nM
IC50 ([6]; BEL-7402): 58.8 ± 10.7 nM
IC50 [7]: 9.59 ± 0.48 nM
IC50 [8]: 98 ± 6.87 nM
IC50 [9]: 1380 ± 25 nM
IC50 ([10]; read-out: IC50(mean ± SD)): 62.6 ± 19.8 nM
IC50 [11]: 18.5 ± 6.14 nM
IC50 [12]: 20.6 ± 2.56 nM
IC50 [13]: 31.9 ± 3.72 nM
IC50 [14]: 227 ± 40.8 nM

C=CCc1c(OC(=O)N2CCC(N3CCCCC3)CC2)ccc2nc3c(cc12)Cn1c-3cc2c(c1=O)COC(=O)[C@]2(O)CC [CPT-4, 10-((4′-piperidylpiperidine)carbonyloxy)-9-allylcamptothecin]
Body weight (g) At the beginning ([15]; 3.75 mg/kg): 17.8 g
Body weight (g) At the end ([15]; 3.75 mg/kg): 19.3 g
RTV ([15]; 3.75 mg/kg): 19 ± 5.5
T/C (%) ([15]; 3.75 mg/kg): 41.4%
TV (mm^3) d0 ([15]; 3.75 mg/kg): 104 ± 22 mm^3
TV (mm^3) d20 ([15]; 3.75 mg/kg): 1931 ± 533 mm^3
Body weight (g) At the beginning ([15]; 7.5 mg/kg): 17.5 g
Body weight (g) At the end ([15]; 7.5 mg/kg): 19.3 g
RTV ([15]; 7.5 mg/kg): 14 ± 5.5
T/C (%) ([15]; 7.5 mg/kg): 31.4%
TV (mm^3) d0 ([15]; 7.5 mg/kg): 108 ± 61 mm^3
TV (mm^3) d20 ([15]; 7.5 mg/kg): 1153 ± 172 mm^3
Body weight (g) At the beginning ([15]; 15 mg/kg): 17.3 g
Body weight (g) At the end ([15]; 15 mg/kg): 17.5 g
RTV ([15]; 15 mg/kg): 0.4 ± 0.7
T/C (%) ([15]; 15 mg/kg): 0.88%
TV (mm^3) d0 ([15]; 15 mg/kg): 106 ± 28 mm^3
TV (mm^3) d20 ([15]; 15 mg/kg): 55 ± 99 mm^3
inhibition of growth of tumor xenografts [15, 19]: can significantly inhibit the growth of tumor xenografts
xenograft growth inhibition compared with CPT-11 [15, 19]: equivalent to that of CPT-11
Body weight (g) At the beginning ([16]; 3.75 mg/kg): 20.2 g
Body weight (g) At the end ([16]; 3.75 mg/kg): 17.0 g
RTV ([16]; 3.75 mg/kg): 8.4 ± 2.0
T/C (%) ([16]; 3.75 mg/kg): 18.9%
TV (mm^3) d0 ([16]; 3.75 mg/kg): 92 ± 27 mm^3
TV (mm^3) d21 ([16]; 3.75 mg/kg): 720 ± 75 mm^3
Body weight (g) At the beginning ([16]; 7.5 mg/kg): 19.5 g
Body weight (g) At the end ([16]; 7.5 mg/kg): 17.2 g
RTV ([16]; 7.5 mg/kg): 3.8 ± 2.2
T/C (%) ([16]; 7.5 mg/kg): 8.31%
TV (mm^3) d0 ([16]; 7.5 mg/kg): 94 ± 30 mm^3
TV (mm^3) d21 ([16]; 7.5 mg/kg): 289 ± 108 mm^3
Body weight (g) At the beginning ([16]; 15 mg/kg): 20.3 g
Body weight (g) At the end ([16]; 15 mg/kg): 17.8 g
RTV ([16]; 15 mg/kg): 1.8 ± 0.5
T/C (%) ([16]; 15 mg/kg): 3.99%
TV (mm^3) d0 ([16]; 15 mg/kg): 100 ± 20 mm^3
TV (mm^3) d21 ([16]; 15 mg/kg): 172 ± 51 mm^3
inhibition of growth of tumor xenografts [16, 19]: can significantly inhibit the growth of tumor xenografts
xenograft growth inhibition compared with CPT-11 [16, 19]: equivalent to that of CPT-11

CCc1c2c(nc3ccc(OC(=O)N4CCC(N5CCCCC5)CC4)cc13)-c1cc3c(c(=O)n1C2)COC(=O)[C@]3(O)CC [CPT-11, Irinotecan]
Body weight (g) At the beginning ([15]; 15 mg/kg): 18.2 g
Body weight (g) At the end ([15]; 15 mg/kg): 18.7 g
RTV ([15]; 15 mg/kg): 0.5 ± 0.5
TV (mm^3) d0 ([15]; 15 mg/kg): 121 ± 34 mm^3
TV (mm^3) d20 ([15]; 15 mg/kg): 55 ± 39 mm^3
Body weight (g) At the end ([16]; 15 mg/kg): 18.3 g
RTV ([16]; 15 mg/kg): 1.9 ± 1.1
TV (mm^3) d0 ([16]; 15 mg/kg): 101 ± 60 mm^3
TV (mm^3) d21 ([16]; 15 mg/kg): 171 ± 86 mm^3

CCc1c2c(nc3ccc(O)cc13)-c1cc3c(c(=O)n1C2)COC(=O)[C@]3(O)CC [SN38]
IC50 [1]: 12.9 ± 5.4 nM
IC50 [2]: 218 nM
IC50 [3]: 234 ± 116 nM
IC50 [4]: 95.6 ± 36.9 nM
IC50 [5]: 303 ± 56 nM
IC50 ([6]; BEL-7402): 136 ± 34.7 nM
IC50 [7]: 6.13 ± 4.07 nM
IC50 [8]: 465 ± 75.3 nM
IC50 [9]: 379 ± 66.4 nM
IC50 ([10]; read-out: IC50(mean ± SD)): 73 ± 15.6 nM
IC50 [11]: 3.42 ± 1.53 nM
IC50 [12]: 6.7 ± 1.26 nM
IC50 [13]: 5.9 ± 1.61 nM
IC50 [14]: 1120 ± 171 nM

CC[C@@]1(O)C(=O)OCc2c1cc1n(c2=O)Cc2cc3c(CN(C)C)c(O)ccc3nc2-1 [TPT, Topotecan]
IC50 ([1]; Homo sapiens): 38 ± 2.19 nM
IC50 [2]: 379 nM
IC50 ([3]; Homo sapiens): 122 ± 36.3 nM
IC50 ([4]; Homo sapiens): 176 ± 97.5 nM
IC50 ([5]; Homo sapiens): 412 ± 188 nM
IC50 ([6]; Homo sapiens, Bel-7402): 420 ± 79.7 nM
IC50 ([7]; Homo sapiens): 14.4 ± 4.41 nM
IC50 ([8]; Homo sapiens): 489 ± 96.5 nM
IC50 ([9]; Homo sapiens): 1380 ± 172 nM
IC50 ([10]; Homo sapiens, MCF7, read-out: IC50(mean ± SD)): 387 ± 45.6 nM
IC50 ([11]; Homo sapiens): 49.7 ± 6.05 nM
IC50 ([12]; Homo sapiens): 23.3 ± 1.32 nM
IC50 ([13]; Homo sapiens): 28.1 ± 6.8 nM
IC50 [14]: 1380 ± 44.4 nM

COc1cccc2c1C(=O)c1c(O)c3c(c(O)c1C2=O)C[C@@](O)(C(=O)CO)C[C@@H]3O[C@H]1C[C@H](N)[C@H](O)[C@H](C)O1 [adriamycin]
IC50 [17]: 493 nM
IC50 ([18]; Homo sapiens, K562/A02 cells): 69.1 µM
Resistance Factor (RF) ([18]; K562/A02 versus K562): 140.24
